According to ChEMBL document CHEMBL1122427, “Structure-activity studies of highly potent cyclic [Cys4,Cys10]Melanotropin analogues” (J Med Chem, 1983):

Assays:
lizard = assay: Evaluated for relative potency in stimulating melanosome dispersion against Lizard skin (Anolis carolinensis).; assay type: functional
frog = assay: Evaluated for relative potency in stimulating melanosome dispersion against Frog skin melanophores (Rana pipiens); assay type: functional

Compound	Relative potency (lizard)	Relative potency (frog)
CC(=O)N[C@@H](CO)C(=O)N[C@@H](Cc1ccc(O)cc1)C(=O)N[C@@H](CO)C(=O)N[C@@H]1CSSC[C@H](C(=O)N[C@H](CCCCN)C(=O)N2CCC[C@@H]2C(=O)N[C@@H](C(N)=O)C(C)C)NC(=O)[C@@H](Cc2c[nH]c3ccccc23)NC(=O)[C@H](CCCN=C(N)N)NC(=O)[C@@H](Cc2ccccc2)NC(=O)[C@H](Cc2c[nH]cn2)NC(=O)[C@@H](CCC(=O)O)NC1=O	32	10000
CC(=O)N[C@@H]1CSSC[C@H](C(N)=O)NC(=O)[C@@H](Cc2c[nH]c3ccccc23)NC(=O)[C@H](CCCN=C(N)N)NC(=O)[C@@H](Cc2ccccc2)NC(=O)[C@H](Cc2c[nH]cn2)NC(=O)[C@@H](CCC(=O)O)NC1=O	0.003	0.07
CC(=O)N[C@@H]1CSSC[C@H](C(=O)N[C@H](CCCCN)C(=O)N2CCC[C@@H]2C(=O)N[C@@H](C(N)=O)C(C)C)NC(=O)[C@@H](Cc2c[nH]c3ccccc23)NC(=O)[C@H](CCCN=C(N)N)NC(=O)[C@@H](Cc2ccccc2)NC(=O)[C@H](Cc2c[nH]cn2)NC(=O)[C@@H](CCC(=O)O)NC1=O	1.6	10000
CSCC[C@H](NC(C)=O)C(=O)N[C@@H](CCC(=O)O)C(=O)N[C@@H](Cc1c[nH]cn1)C(=O)N[C@@H](Cc1ccccc1)C(=O)N[C@@H](CCCN=C(N)N)C(=O)N[C@@H](Cc1c[nH]c2ccccc12)C(=O)NCC(N)=O	0.02	0.0006
